What all share (format): cell-based
One assay addresses Cyclin E1 (Homo sapiens, UniProt P24864+Q96SW2). Briefly: Cyclin E1 Cellular Degradation Assay (MSD). Also noted: endogenous in cells; host or cells: OVCAR3. To be noted: for DC50 / Dmax: Cyclin E1 cellular degradation; for Dmax: maximum degradation; for Ratio of GSPT1 DC50/Cyclin E1 DC50: selectivity for degradation of Cyclin E1 over GSPT1. Put shortly: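 OVCAR3 cells treated with compound for 24 h at 37 °C, lysed, and cyclin E1 measured by MSD sandwich immunoassay (rabbit capture, mouse detection anti-CCNE1). Reference degrader at […] defined 110% response; DC50 and Dmax derived from response.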

A further assay relates to Phospho-Rb (Ser807/811). The assay is described as follows: Phospho-Retinoblastoma (pRB) Cellular Assay. To be noted: Homo sapiens, OVCAR-3, NIH OVCAR3 cells, 24 hours; for IC50: concentration giving 50% response; for Emax: maximum response, reference compound at 10 μM = 100%, read-out: pRB Ymax. Put shortly:
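OVCAR3 cells seeded overnight, then dosed with serial dilutions for 24 h at 37° C. Lysed with kit mix plus phosphatase inhibitor, ≥4 h at room temperature, read on EnVision; 100% response set by reference compound at 10 μM, giving IC50 and Ymax.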

The next assay has as its target GSPT1 (Homo sapiens, UniProt P15170+Q96SW2). Briefly: GSPT1 Cellular Degradation Assay (DF15-GSPT1-ePL). To be noted: DF15-GSPT1-ePL cells, 20 hours. Also noted: expressed in transfected cells. Put shortly: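 Human DF15 cells co-expressing a GSPT1–ePL fusion were treated with compound in RPMI 1640/10% FBS for 20 h at 37 °C. GSPT1 level was read by enzyme-fragment-complementation luminescence after 60 min with detection reagent. The reference degrader at […] defined 75% response; DC50 and Dmax were reported.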

Each structure is given as a SMILES string.

Chain of GSPT1 (P15170 whole entry, the tested form may be a part): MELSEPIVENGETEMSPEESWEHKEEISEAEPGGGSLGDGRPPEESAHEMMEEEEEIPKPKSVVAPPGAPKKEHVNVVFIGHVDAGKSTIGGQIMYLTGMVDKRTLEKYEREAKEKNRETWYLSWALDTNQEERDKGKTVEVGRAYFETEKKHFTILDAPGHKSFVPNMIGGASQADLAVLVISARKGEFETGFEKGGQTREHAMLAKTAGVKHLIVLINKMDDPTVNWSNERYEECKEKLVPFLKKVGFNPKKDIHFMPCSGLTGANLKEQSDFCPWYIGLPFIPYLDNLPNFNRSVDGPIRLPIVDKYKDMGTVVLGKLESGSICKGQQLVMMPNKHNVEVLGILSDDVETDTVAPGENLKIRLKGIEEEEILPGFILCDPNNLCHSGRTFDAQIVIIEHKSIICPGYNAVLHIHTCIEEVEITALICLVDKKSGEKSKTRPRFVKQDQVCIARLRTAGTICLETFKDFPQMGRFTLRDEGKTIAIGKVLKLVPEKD
Chain of GSPT1 (Q96SW2 whole entry, the tested form may be a part): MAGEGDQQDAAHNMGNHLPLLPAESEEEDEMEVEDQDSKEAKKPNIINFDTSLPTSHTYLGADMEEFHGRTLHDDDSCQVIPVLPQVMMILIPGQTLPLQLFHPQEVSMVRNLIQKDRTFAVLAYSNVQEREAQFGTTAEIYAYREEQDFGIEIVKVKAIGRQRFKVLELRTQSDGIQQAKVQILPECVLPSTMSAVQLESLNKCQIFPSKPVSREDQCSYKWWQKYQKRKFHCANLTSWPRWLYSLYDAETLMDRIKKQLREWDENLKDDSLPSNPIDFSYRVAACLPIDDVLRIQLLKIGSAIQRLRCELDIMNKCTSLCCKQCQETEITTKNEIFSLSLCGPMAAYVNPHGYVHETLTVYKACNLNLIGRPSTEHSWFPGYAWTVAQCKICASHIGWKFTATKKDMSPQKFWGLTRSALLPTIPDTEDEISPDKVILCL
Chain of GSPT1 (Q16531 whole entry partner, the tested form may be a part): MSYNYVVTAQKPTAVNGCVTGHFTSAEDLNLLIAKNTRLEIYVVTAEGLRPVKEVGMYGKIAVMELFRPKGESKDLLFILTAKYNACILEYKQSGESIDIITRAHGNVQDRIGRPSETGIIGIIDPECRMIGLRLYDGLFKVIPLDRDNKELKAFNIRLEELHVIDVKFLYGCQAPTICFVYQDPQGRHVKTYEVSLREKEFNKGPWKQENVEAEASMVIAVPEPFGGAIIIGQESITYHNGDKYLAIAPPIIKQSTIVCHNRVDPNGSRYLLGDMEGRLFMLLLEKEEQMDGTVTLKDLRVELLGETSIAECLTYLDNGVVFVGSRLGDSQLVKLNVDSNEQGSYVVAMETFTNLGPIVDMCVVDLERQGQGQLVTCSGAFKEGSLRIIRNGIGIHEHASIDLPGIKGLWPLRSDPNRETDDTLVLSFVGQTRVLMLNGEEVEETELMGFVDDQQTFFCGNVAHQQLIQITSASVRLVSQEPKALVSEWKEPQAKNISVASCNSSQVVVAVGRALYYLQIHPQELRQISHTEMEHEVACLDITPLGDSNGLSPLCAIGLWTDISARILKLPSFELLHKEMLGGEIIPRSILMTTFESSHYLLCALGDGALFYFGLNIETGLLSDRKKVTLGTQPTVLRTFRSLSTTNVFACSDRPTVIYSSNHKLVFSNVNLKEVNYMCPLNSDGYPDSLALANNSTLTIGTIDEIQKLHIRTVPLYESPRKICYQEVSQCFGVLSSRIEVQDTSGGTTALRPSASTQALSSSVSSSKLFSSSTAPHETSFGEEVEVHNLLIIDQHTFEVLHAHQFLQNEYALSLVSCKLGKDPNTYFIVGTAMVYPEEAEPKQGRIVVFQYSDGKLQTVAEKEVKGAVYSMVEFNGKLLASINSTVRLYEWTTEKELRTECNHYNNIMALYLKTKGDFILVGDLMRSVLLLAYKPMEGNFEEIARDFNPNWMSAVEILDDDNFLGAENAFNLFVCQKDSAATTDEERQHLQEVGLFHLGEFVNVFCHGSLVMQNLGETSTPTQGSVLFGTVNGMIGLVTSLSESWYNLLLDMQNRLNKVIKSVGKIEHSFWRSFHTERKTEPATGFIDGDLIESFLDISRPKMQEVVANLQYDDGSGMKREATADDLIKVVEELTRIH
Chain of Cyclin E1 (P24864 whole entry): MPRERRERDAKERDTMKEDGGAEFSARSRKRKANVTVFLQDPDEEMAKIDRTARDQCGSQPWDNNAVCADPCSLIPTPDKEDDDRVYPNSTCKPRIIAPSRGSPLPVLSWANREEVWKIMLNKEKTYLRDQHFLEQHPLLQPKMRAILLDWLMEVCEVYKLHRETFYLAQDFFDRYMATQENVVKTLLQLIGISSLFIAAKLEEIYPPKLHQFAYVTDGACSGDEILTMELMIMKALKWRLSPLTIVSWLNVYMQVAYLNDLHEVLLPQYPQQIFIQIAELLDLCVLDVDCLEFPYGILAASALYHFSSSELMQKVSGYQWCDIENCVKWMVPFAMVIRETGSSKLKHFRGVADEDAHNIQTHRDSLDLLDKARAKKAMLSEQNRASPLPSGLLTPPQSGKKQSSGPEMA
Chain of Cyclin E1 (Q96SW2 whole entry): as the sequence (Q96SW2 whole entry, the tested form may be a part) above
Chain of Cyclin E1 (Q16531 whole entry partner): as the sequence (Q16531 whole entry partner, the tested form may be a part) above

In general, DC50 refers to the concentration giving 50% degradation. Read a high DC50 as degradation only at high concentration. Broadly, the Dmax is the greatest extent of degradation seen. As usually defined, the IC50 is the point on the concentration scale where inhibition reaches its midpoint. A low value points to inhibition by little substance. With `COc1c(COC(=O)Nc2ccc(Cc3cccc(F)c3)cc2F)ccc2c1C(=O)N(C1CCC(=O)NC1=O)C2` (centres unmarked) [Example 20, [2-(2,6-dioxopiperidin-3-yl)-4-methoxy-3-oxo-2,3-dihydro-1H-isoindol-5-yl]methyl N-{2-fluoro-4-[(3-fluorophenyl)methyl]phenyl}carbamate], at Cyclin E1, it took 96 nM to reach half-maximal degradation (DC50), the Dmax worked out at 101% and the “Ratio of GSPT1 DC50/Cyclin E1 DC50” value is recorded as over 146. Further, in the assay on Phospho-Rb (Ser807/811), the IC50 amounted to 440 nM and the Emax was 103%. In addition, on GSPT1, the DC50 was over 14000 nM and the Dmax amounted to 11%.
As for `COc1c(COC(=O)Nc2ccc(Oc3ccc(Cl)c(Cl)c3)cc2F)ccc2c1C(=O)N(C1CCC(=O)NC1=O)C2` (centres unmarked) [Example 117, [2-(2,6-dioxopiperidin-3-yl)-4-methoxy-3-oxo-2,3-dihydro-1H-isoindol-5-yl]methyl N-[4-(3,4-dichlorophenoxy)-2-fluorophenyl]carbamate], at Cyclin E1, the DC50 turned out to be 104 nM, the Dmax is 108% and the “Ratio of GSPT1 DC50/Cyclin E1 DC50” value was over 135. In the assay with Phospho-Rb (Ser807/811), inhibition was half-maximal at 115 nM (IC50) and the Emax came to 108%. Further, at GSPT1, the DC50 was over 14000 nM and the Dmax was 28%.
Turning to `COc1c(COC(=O)Nc2ccc(Oc3ccc(F)c(Cl)c3)cc2C)ccc2c1C(=O)N(C1CCC(=O)NC1=O)C2` (centres unmarked) [Example 83, [2-(2,6-dioxopiperidin-3-yl)-4-methoxy-3-oxo-2,3-dihydro-1H-isoindol-5-yl]methyl N-[4-(3-chloro-4-fluorophenoxy)-2-methylphenyl]carbamate], on Cyclin E1, the DC50 was 136 nM, the Dmax worked out at 110% and the “Ratio of GSPT1 DC50/Cyclin E1 DC50” value is over 103. Moreover, in the assay on Phospho-Rb (Ser807/811), the 50% inhibitory concentration (IC50) came to 172 nM and the Emax came to 117%. In addition, at GSPT1, the DC50 is over 14000 nM and the Dmax was determined as 31%.
Take `COc1c(COC(=O)Nc2ccc(Oc3cc(F)c(F)cc3F)cc2)ccc2c1C(=O)N(C1CCC(=O)NC1=O)C2` (centres unmarked) [Example 44, [2-(2,6-dioxopiperidin-3-yl)-4-methoxy-3-oxo-2,3-dihydro-1H-isoindol-5-yl]methyl N-[4-(2,4,5-trifluorophenoxy)phenyl]carbamate]: on Cyclin E1, it took 273 nM to reach half-maximal degradation (DC50), the Dmax was found to be 111% and the “Ratio of GSPT1 DC50/Cyclin E1 DC50” value is over 51. In the assay on Phospho-Rb (Ser807/811), the IC50 was 109 nM and the Emax came out at 111%. On GSPT1, the DC50 was over 14000 nM and the Dmax is 42%.
Turning to `[2H]C1([2H])C(=O)NC(=O)[C@@]([2H])(N2Cc3ccc(COC(=O)Nc4ccc(Oc5ccc(F)c(F)c5)cc4)c(OC)c3C2=O)C1([2H])[2H]` [Example 180, {2-[(3S)-2,6-dioxo(3,4,4,5,5-^2H5s)piperidin-3-yl]-4-methoxy-3-oxo-2,3-dihydro-1H-isoindol-5-yl}methyl N-[4-(3,4-difluorophenoxy)phenyl]carbamate], at Cyclin E1, the DC50 turned out to be 60 nM, the Dmax amounted to 111% and the “Ratio of GSPT1 DC50/Cyclin E1 DC50” value is listed as over 233. Moreover, in the assay with Phospho-Rb (Ser807/811), the IC50 is 54 nM and the Emax was 108%. Further, at GSPT1, the DC50 was over 14000 nM and the Dmax was 48%.
Consider `COc1c(COC(=O)Nc2ccc(Oc3ccc(F)c(C)c3)cc2C)ccc2c1C(=O)N(C1CCC(=O)NC1=O)C2` (centres unmarked) [Example 82, [2-(2,6-dioxopiperidin-3-yl)-4-methoxy-3-oxo-2,3-dihydro-1H-isoindol-5-yl]methyl N-[4-(4-fluoro-3-methylphenoxy)-2-methylphenyl]carbamate], for which, at Cyclin E1, the DC50 was determined as 327 nM, the Dmax turned out to be 109% and the “Ratio of GSPT1 DC50/Cyclin E1 DC50” value is over 43. In the assay on Phospho-Rb (Ser807/811), the IC50 turned out to be 354 nM and the Emax is 97%. In addition, at GSPT1, the DC50 is over 14000 nM and the Dmax is 25%.
With `COc1c(COC(=O)Nc2ccc(Oc3ccc(F)c(F)c3)cc2F)ccc2c1C(=O)N(C1CCC(=O)NC1=O)C2` (centres unmarked) [Example 23, [2-(2,6-dioxopiperidin-3-yl)-4-methoxy-3-oxo-2,3-dihydro-1H-isoindol-5-yl]methyl N-[4-(3,4-difluorophenoxy)-2-fluorophenyl]carbamate], at Cyclin E1, it took 71 nM to reach half-maximal degradation (DC50), the Dmax was 105% and the “Ratio of GSPT1 DC50/Cyclin E1 DC50” value is recorded as over 196. For the same compound, in the assay with Phospho-Rb (Ser807/811), the IC50 came out at 158 nM and the Emax stood at 97%. Moreover, at GSPT1, the DC50 is over 14000 nM and the Dmax is 27%.
For the compound `COc1c(COC(=O)Nc2ccc(Oc3ccccc3Cl)cc2)ccc2c1C(=O)N(C1CCC(=O)NC1=O)C2` (centres unmarked) [Example 80, [2-(2,6-dioxopiperidin-3-yl)-4-methoxy-3-oxo-2,3-dihydro-1H-isoindol-5-yl]methyl N-[4-(2-chlorophenoxy)phenyl]carbamate], at Cyclin E1, the DC50 was found to be 181 nM, the Dmax amounted to 115% and the “Ratio of GSPT1 DC50/Cyclin E1 DC50” value was over 77. Besides, in the assay with Phospho-Rb (Ser807/811), inhibition was half-maximal at 73 nM (IC50) and the Emax turned out to be 119%. Besides, on GSPT1, the 50% degradation concentration (DC50) is over 14000 nM and the Dmax came out at 40%.
As to `O=C1CCC(N2Cc3ccc(COC(=O)Nc4ccc(Oc5ccc(F)cc5F)cc4F)c(O[C@@H]4CCCOC4)c3C2=O)C(=O)N1` (stereo partly drawn) [Example 148, [2-(2,6-dioxopiperidin-3-yl)-4-[(3R)-oxan-3-yloxy]-3-oxo-2,3-dihydro-1H-isoindol-5-yl]methyl N-[4-(2,4-difluorophenoxy)-2-fluorophenyl]carbamate], on Cyclin E1, it took 33 nM to reach half-maximal degradation (DC50), the Dmax was found to be 110% and the “Ratio of GSPT1 DC50/Cyclin E1 DC50” value is over 423. In addition, in the assay on Phospho-Rb (Ser807/811), half-maximal inhibition (IC50) was put at 75 nM and the Emax is 136%. Further, on GSPT1, the DC50 is over 14000 nM and the Dmax amounted to 10%.
As for `CN(C)C(=O)COc1c(COC(=O)Nc2ccc(Oc3ccc(F)c(F)c3)cc2)ccc2c1C(=O)N(C1CCC(=O)NC1=O)C2` (centres unmarked) [Example 175, {4-[(dimethylcarbamoyl)methoxy]-2-(2,6-dioxopiperidin-3-yl)-3-oxo-2,3-dihydro-1H-isoindol-5-yl}methyl N-[4-(3,4-difluorophenoxy)phenyl]carbamate], at Cyclin E1, the DC50 amounted to 45 nM, the Dmax worked out at 110% and the “Ratio of GSPT1 DC50/Cyclin E1 DC50” value is over 308. Further, in the assay on Phospho-Rb (Ser807/811), the 50% inhibitory concentration (IC50) is 30 nM and the Emax was 128%. Moreover, at GSPT1, the DC50 is over 14000 nM and the Dmax was found to be 11%.
For `CC(C)(O)COc1c(COC(=O)Nc2ccc(Oc3cc(F)c(F)c(F)c3)cc2F)ccc2c1C(=O)N(C1CCC(=O)NC1=O)C2` (centres unmarked) [Example 165, [2-(2,6-dioxopiperidin-3-yl)-4-(2-hydroxy-2-methylpropoxy)-3-oxo-2,3-dihydro-1H-isoindol-5-yl]methyl N-[2-fluoro-4-(3,4,5-trifluorophenoxy)phenyl]carbamate], on Cyclin E1, the 50% degradation concentration (DC50) was determined as 42 nM, the Dmax is 107% and the “Ratio of GSPT1 DC50/Cyclin E1 DC50” value is on record as over 332. In addition, in the assay with Phospho-Rb (Ser807/811), half-maximal inhibition (IC50) required 28 nM and the Emax was determined as 133%. In addition, on GSPT1, the DC50 is over 14000 nM and the Dmax turned out to be 10%.
For `O=C1CCC(N2Cc3ccc(COC(=O)Nc4ccc(Oc5cccc(F)c5)cc4)c(Oc4ccccc4)c3C2=O)C(=O)N1` (centres unmarked) [Example 64, [2-(2,6-dioxopiperidin-3-yl)-3-oxo-4-phenoxy-2,3-dihydro-1H-isoindol-5-yl]methyl N-[4-(3-fluorophenoxy)phenyl]carbamate], on Cyclin E1, it took 133 nM to reach half-maximal degradation (DC50), the Dmax was found to be 109% and the “Ratio of GSPT1 DC50/Cyclin E1 DC50” value is recorded as over 105. In addition, in the assay on Phospho-Rb (Ser807/811), the IC50 was determined as 83 nM and the Emax was 111%. For the same compound, on GSPT1, the DC50 was over 14000 nM and the Dmax amounted to 22%.
Turning to `COc1c(COC(=O)Nc2ccc(Oc3ccc(F)cc3F)cc2C)ccc2c1C(=O)N(C1CCC(=O)NC1=O)C2` (centres unmarked) [Example 42, [2-(2,6-dioxopiperidin-3-yl)-4-methoxy-3-oxo-2,3-dihydro-1H-isoindol-5-yl]methyl N-[4-(2,4-difluorophenoxy)-2-methylphenyl]carbamate], at Cyclin E1, the DC50 worked out at 96 nM, the Dmax was 106% and the “Ratio of GSPT1 DC50/Cyclin E1 DC50” value is over 146. Also, in the assay with Phospho-Rb (Ser807/811), the IC50 is 132 nM and the Emax was found to be 110%. Also, on GSPT1, the DC50 was over 14000 nM and the Dmax was determined as 20%.
Consider `O=C1CCC(N2Cc3ccc(COC(=O)Nc4ccc(Oc5ccc(F)cc5F)cc4)c(O[C@@H]4CCCOC4)c3C2=O)C(=O)N1` (stereo partly drawn) [Example 145, [2-(2,6-dioxopiperidin-3-yl)-4-[(3R)-oxan-3-yloxy]-3-oxo-2,3-dihydro-1H-isoindol-5-yl]methyl N-[4-(2,4-difluorophenoxy)phenyl]carbamate], for which, at Cyclin E1, the half-maximal degradation concentration (DC50) amounted to 57 nM, the Dmax stood at 111% and the “Ratio of GSPT1 DC50/Cyclin E1 DC50” value is over 247. In the assay on Phospho-Rb (Ser807/811), the 50% inhibitory concentration (IC50) was found to be 37 nM and the Emax was found to be 145%. On GSPT1, the DC50 was over 14000 nM and the Dmax stood at 9%.

Source of the values: US20250084056A1, “SUBSTITUTED OXOISOINDOLINYL PIPERIDINE-2,6-DIONE COMPOUNDS” (BRISTOL-MYERS SQUIBB COMPANY, priority 2023, published 2025).
